Patent US9730937B2, “RAF kinase modulator compounds and methods of use thereof” (AMBIT BIOSCIENCES CORPORATION, priority 2008, dated 2017)
Counter-ions that a name gives are not always drawn. Like-named read-outs stand apart in the source and are kept apart here.

Assays:
mutant BRAF kinase = mutant BRAF kinase (Homo sapiens (Human), UniProt P15056, V600E); settings: read-out: BRAF V600E Kd, class symbols
RAF kinases = RAF kinases (Homo sapiens (Human), UniProt P04049); settings: read-out: RAF1 Kd, class symbols
Method: The liganded beads were blocked with excess biotin and washed with blocking buffer (SeaBlock (Pierce), 1% BSA, 0.05% Tween 20, 1 mM DTT) to remove unbound ligand and to reduce non-specific binding. […] Test compounds were prepared as 100× stocks in DMSO and rapidly diluted into the aqueous environment. DMSO was added to control assays lacking a test compound. Primary screen interactions were performed in polypropylene 384-well plates in a final volume of 34 μL, while Kd determinations were performed in polystyrene 96-well plates in a final volume of 135 μL. […] The kinase concentration in the eluates was measured by quantitative PCR. Each kinase was tested individually against each compound. KdS were determined using eleven serial threefold dilutions. A selectivity score, which is a quantitative measure of selectivity of a compound against a panel of enzymes, may be calculated for a compound by dividing the number of enzymes for which a compound meets a set criteria, (for example, a binding constant of 100 nM or less), by the total number of enzymes tested. […] (Note, for those compounds tested in a larger kinase panel, as indicated by an asterisk (*) next to the S35 score, the divisor is 321 (i.e. the larger panel contains 321 distinct kinases, excluding mutant variants.)).

[1] = test system: panel of 290 distinct kinases (321 in the larger panel), excluding mutant variants; settings: kinase selectivity score, class symbols
[2] = value marked * (larger kinase panel)

Chain of RAF kinases (P04049 whole entry): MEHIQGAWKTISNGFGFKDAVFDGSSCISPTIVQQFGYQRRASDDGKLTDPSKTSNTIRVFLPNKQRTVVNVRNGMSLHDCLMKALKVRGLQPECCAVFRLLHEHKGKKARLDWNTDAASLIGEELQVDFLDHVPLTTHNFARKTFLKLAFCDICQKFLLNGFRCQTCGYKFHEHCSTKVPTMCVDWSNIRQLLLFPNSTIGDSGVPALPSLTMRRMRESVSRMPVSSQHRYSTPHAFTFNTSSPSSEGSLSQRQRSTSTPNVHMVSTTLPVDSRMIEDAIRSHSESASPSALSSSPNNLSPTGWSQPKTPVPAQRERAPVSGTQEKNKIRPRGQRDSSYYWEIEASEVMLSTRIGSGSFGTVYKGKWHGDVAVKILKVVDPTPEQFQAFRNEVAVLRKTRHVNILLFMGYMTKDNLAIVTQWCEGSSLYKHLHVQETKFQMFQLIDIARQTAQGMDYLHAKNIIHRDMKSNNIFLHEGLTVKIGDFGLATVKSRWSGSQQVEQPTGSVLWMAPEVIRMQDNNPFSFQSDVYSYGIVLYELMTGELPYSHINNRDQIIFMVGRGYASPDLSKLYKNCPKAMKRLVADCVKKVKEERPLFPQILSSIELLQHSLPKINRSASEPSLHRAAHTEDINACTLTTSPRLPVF
Chain of mutant BRAF kinase (P15056 whole entry V600E): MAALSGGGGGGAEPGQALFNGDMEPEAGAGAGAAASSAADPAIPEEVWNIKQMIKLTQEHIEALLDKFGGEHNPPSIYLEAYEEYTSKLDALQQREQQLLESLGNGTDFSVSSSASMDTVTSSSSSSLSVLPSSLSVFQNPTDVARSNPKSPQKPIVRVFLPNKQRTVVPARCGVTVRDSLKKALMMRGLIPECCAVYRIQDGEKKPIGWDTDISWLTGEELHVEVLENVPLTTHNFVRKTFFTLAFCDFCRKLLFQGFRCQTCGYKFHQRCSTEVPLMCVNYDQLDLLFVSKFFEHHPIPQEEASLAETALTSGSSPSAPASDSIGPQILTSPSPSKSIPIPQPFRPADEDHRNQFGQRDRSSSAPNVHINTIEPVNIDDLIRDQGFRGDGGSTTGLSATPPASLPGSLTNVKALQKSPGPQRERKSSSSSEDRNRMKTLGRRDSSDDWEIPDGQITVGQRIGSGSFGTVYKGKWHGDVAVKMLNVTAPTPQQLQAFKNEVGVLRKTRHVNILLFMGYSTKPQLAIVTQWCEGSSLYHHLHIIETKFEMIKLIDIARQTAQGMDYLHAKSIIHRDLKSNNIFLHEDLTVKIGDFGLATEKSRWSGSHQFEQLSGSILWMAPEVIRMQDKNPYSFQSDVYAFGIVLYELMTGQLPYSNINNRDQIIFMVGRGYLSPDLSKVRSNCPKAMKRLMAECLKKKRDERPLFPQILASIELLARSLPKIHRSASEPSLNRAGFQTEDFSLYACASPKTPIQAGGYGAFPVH

Compound	Kd (mutant BRAF kinase) [nM]	Kd (RAF kinases) [nM]	S35 ([1]; 290 distinct kinases)	S35 [1, 2]
COc1cc2c(Sc3cccc(NC(=O)Nc4cc(C(C)(C)C)on4)c3)ncnc2cc1OCCCN1CCC(CO)CC1 [Ex 74, 1-(5-tert-butylisoxazol-3-yl)-3-(3-(7-(3-(4-(hydroxymethyl)piperidin-1-yl)propoxy)-6-methoxyquinazolin-4-ylthio)phenyl)urea]	< 250	< 250	D (D > 0.40)	–
COc1cc2ncnc(Oc3cccc(NC(=O)Nc4cccc(C(C)(C)C)c4)c3)c2cc1OC [Ex 118, 1-(3-tert-butylphenyl)-3-(3-(6,7-dimethoxyquinazolin-4-yloxy)phenyl)urea]	< 250	< 250	–	C* (0.20 < C ≦ 0.40)
COc1cc2ncnc(Sc3cccc(NC(=O)Nc4cc(C(C)(C)C)on4)c3)c2cc1OCCN1CCOCC1 [Ex 70, 1-(5-tert-butylisoxazol-3-yl)-3-(3-(7-methoxy-6-(2-morpholinoethoxy)quinazolin-4-ylthio)phenyl)urea]	< 250	< 250	C (0.20 < C ≦ 0.40)	–
COc1cc2ncnc(Oc3cccc(NC(=O)Nc4cc(C(C)(C)C)on4)c3)c2cc1O [Ex 107, 1-(5-tert-butylisoxazol-3-yl)-3-(3-(6-hydroxy-7-methoxyquinazolin-4-yloxy)phenyl)urea]	< 250	< 250	C (0.20 < C ≦ 0.40)	–
COc1cc2ncnc(Oc3cccc(NC(=O)Nc4cc(C(C)(C)C)on4)c3)c2cc1OCCN1CCCCC1 [Ex 16, 1-(5-tert-butylisoxazol-3-yl)-3-(3-(7-methoxy-6-(2-(piperidin-1-yl)ethoxy)quinazolin-4-yloxy)phenyl)urea]	< 250	> 1000	C (0.20 < C ≦ 0.40)	–
COc1cc2ncnc(Oc3cccc(NC(=O)Nc4cc(-c5ccccc5)on4)c3)c2cc1OC [Ex 113, 1-(3-(6,7-dimethoxyquinazolin-4-yloxy)phenyl)-3-(5-phenylisoxazol-3-yl)urea]	–	< 250	B (0.10 < B ≦ 0.20)	–
COCCOc1cc2ncnc(Sc3cccc(NC(=O)Nc4cc(C(C)(C)C)on4)c3)c2cc1OC [Ex 52, 1-(5-tert-butylisoxazol-3-yl)-3-{3-[6-methoxy-7-(2-methoxyethoxy)quinazolin-4-ylthio]phenyl}urea hydrochloride]	< 250	–	C (0.20 < C ≦ 0.40)	–
COc1cc2c(Sc3cccc(NC(=O)Nc4cc(C(C)(C)C)on4)c3)ncnc2cc1OCCN1CCOCC1 [Ex 79, (1-(5-tert-butylisoxazol-3-yl)-3-(3-(6-methoxy-7-(2-morpholinoethoxy)quinazolin-4-ylthio)phenyl)urea)]	< 250	–	D (D > 0.40)	–
COc1cc2ncnc(Oc3cccc(NC(=O)Nc4cc(C(C)(C)C)on4)c3)c2cc1OCCCN1CCN(S(C)(=O)=O)CC1 [Ex 25, 1-(5-tert-butylisoxazol-3-yl)-3-(3-(7-methoxy-6-(3-(4-(methylsulfonyl)piperazin-1-yl)propoxy)quinazolin-4-yloxy)phenyl)urea]	< 250	–	D (D > 0.40)	–
COc1cc2c(Oc3cccc(NC(=O)Nc4cc(C(C)(C)C)on4)c3)ncnc2cc1OCCN1CCS(=O)(=O)CC1 [Ex 39, 1-(5-tert-butyl-isoxazol-3-yl)-3-(3-{7-[2-(1,1-dioxo-116-thiomorpholin-4-yl)-ethoxy]-6-methoxy-quinazolin-4-yloxy}-phenyl)-urea]	< 250	–	C (0.20 < C ≦ 0.40)	–
COc1cc2ncnc(Oc3cccc(NC(=O)Nc4cc(C(F)(F)F)ncn4)c3)c2cc1OC [Ex 146, 1-(3-(6,7-dimethoxyquinazolin-4-yloxy)phenyl)-3-(6-(trifluoromethyl)pyrimidin-4-yl)urea]	< 250	–	–	B* (0.10 < B ≦ 0.20)
COc1cc2c(Sc3cccc(NC(=O)Nc4cc(C(C)(C)C)on4)c3)ncnc2cc1OCCN1CCN(C)CC1 [Ex 83, 1-(5-tert-butylisoxazol-3-yl)-3-(3-(6-methoxy-7-(2-(4-methylpiperazin-1-yl)ethoxy)quinazolin-4-ylthio)phenyl)urea]	< 250	–	C (0.20 < C ≦ 0.40)	–
COc1cc2c(Oc3cccc(NC(=O)Nc4cc(C(C)(C)C)on4)c3)ncnc2cc1OCCCN1CC[C@H](O)C1 [Ex 33, (S)-1-(5-tert-butylisoxazol-3-yl)-3-(3-(7-(3-(3-hydroxypyrrolidin-1-yl)propoxy)-6-methoxyquinazolin-4-yloxy)phenyl)urea]	< 250	–	–	D* (D > 0.40)
COc1cccc(NC(=O)Nc2cccc(Oc3ncnc4cc(OC)c(OC)cc34)c2)c1 [Ex 178, 1-(3-(6,7-dimethoxyquinazolin-4-yloxy)phenyl)-3-(3-methoxyphenyl)urea]	< 250	–	–	B* (0.10 < B ≦ 0.20)
COc1cc2c(Oc3cccc(NC(=O)Nc4cc(C(C)(C)C)on4)c3)ncnc2cc1OCCN1CCOCC1 [Ex 35, 1-(5-tert-butylisoxazol-3-yl)-3-(3-(6-methoxy-7-(2-morpholinoethoxy)quinazolin-4-yloxy)phenyl)urea]	< 250	–	C (0.20 < C ≦ 0.40)	–
COc1cc2ncnc(Oc3cccc(NC(=O)Nc4cc(C(C)(C)C)on4)c3)c2cc1OCCN1CCN(C)CC1 [Ex 18, 1-(5-tert-butylisoxazol-3-yl)-3-(3-(7-methoxy-6-(2-(4-methylpiperazin-1-yl)ethoxy)quinazolin-4-yloxy)phenyl)urea]	< 250	–	D (D > 0.40)	–
COCCOc1cc2ncnc(Oc3cccc(NC(=O)Nc4cc(C(C)(C)C)on4)c3)c2cc1OC [Ex 7, 1-(5-tert-Butylisoxazol-3-yl)-3-{3-[6-methoxy-7-(2-methoxyethoxy)quinazolin-4-yloxy]phenyl}urea hydrochloride]	< 250	–	D (D > 0.40)	–
COCCOc1cc2ncnc(Oc3cccc(NC(=O)Nc4cc(C(C)(C)C)on4)c3)c2cc1OCCOC [Ex 12, 1-{3-[6,7-bis(2-methoxyethoxy)quinazolin-4-yloxy]phenyl}-3-(5-tert-butylisoxazol-3-yl)urea hydrochloride]	< 250	–	C (0.20 < C ≦ 0.40)	–
COCCOc1ccc2c(Oc3cccc(NC(=O)Nc4cc(C(C)(C)C)on4)c3)ncnc2c1 [Ex 43, 1-(5-tert-butylisoxazol-3-yl)-3-(3-(7-(2-methoxyethoxy)quinazolin-4-yloxy)phenyl)urea]	< 250	–	C (0.20 < C ≦ 0.40)	–
COc1cc2ncnc(Sc3cccc(NC(=O)Nc4cc(C(C)(C)C)on4)c3)c2cc1OCCN1CCC(CO)CC1 [Ex 66, 1-(5-tert-butylisoxazol-3-yl)-3-(3-(6-(2-(4-(hydroxymethyl)piperidin-1-yl)ethoxy)-7-methoxyquinazolin-4-ylthio)phenyl)urea]	< 250	–	C (0.20 < C ≦ 0.40)	–
CC(C)(C)c1cc(NC(=O)Nc2cccc(Oc3ncnc4cc5c(cc34)OCCO5)c2)no1 [Ex 14, 1-(5-tert-butylisoxazol-3-yl)-3-[3-(7,8-dihydro-[1,4]dioxino[2,3-g]quinazolin-4-yloxy)phenyl]urea hydrochloride]	< 250	–	C (0.20 < C ≦ 0.40)	–
COc1cc2ncnc(Oc3cccc(NC(=O)Nc4cc(C(C)(C)C)on4)c3)c2cc1OCCN1CCS(=O)(=O)CC1 [Ex 91, 1-(5-tert-butyl-isoxazol-3-yl)-3-(3-{6-[2-(1,1-dioxo-thiomorpholin-4-yl)-ethoxy]-7-methoxy-quinazolin-4-yloxy}-phenyl)-urea]	< 250	–	C (0.20 < C ≦ 0.40)	–
COc1cc2ncnc(Oc3cccc(NC(=O)Nc4cc(C(C)(C)C)on4)c3)c2cc1OC[C@H](O)CN1CCN(C)CC1 [Ex 112, (R)-1-(5-tert-butylisoxazol-3-yl)-3-(3-(6-(2-hydroxy-3-(4methylpiperazin-1-yl)propoxy)-7-methoxyquinazolin-4-yloxy)phenyl)urea]	< 250	–	D (D > 0.40)	–
CC(C)(C)c1cc(NC(=O)Nc2cccc(Oc3ncnc4ccc(-c5ccc(CNCCS(C)(=O)=O)o5)cc34)c2)no1 [Ex 92, 1-(5-tert-butylisoxazol-3-yl)-3-{3-[6-(5-{[2-(methylsulfonyl)ethylamino]methyl}furan-2-yl)quinazolin-4-yloxy]phenyl}urea]	< 250	–	C (0.20 < C ≦ 0.40)	–
COc1cc2ncnc(Sc3cccc(NC(=O)Nc4cc(C(C)(C)C)on4)c3)c2cc1OCCCN1CCN(C)CC1 [Ex 59, 1-(5-tert-butylisoxazol-3-yl)-3-(3-(7-methoxy-6-(3-(4-methylpiperazin-1-yl)propoxy)quinazolin-4-ylthio)phenyl)urea]	< 250	–	D (D > 0.40)	–
COc1cc2c(Oc3cccc(NC(=O)Nc4cc(C(C)(C)C)on4)c3)ncnc2cc1O [Ex 95, 1-(5-tert-butylisoxazol-3-yl)-3-(3-(7-hydroxy-6-methoxyquinazolin-4-yloxy)phenyl)urea]	< 250	–	C (0.20 < C ≦ 0.40)	–
COCCOc1cc2c(Sc3cccc(NC(=O)Nc4cc(C(C)(C)C)on4)c3)ncnc2cc1OC [Ex 45, 1-(5-tert-butylisoxazol-3-yl)-3-(3-(7-methoxy-6-(2-methoxyethoxy)quinazolin-4-ylthio)phenyl)urea]	< 250	–	C (0.20 < C ≦ 0.40)	–
COc1cc2ncnc(Oc3cccc(NC(=O)Nc4cc(C(C)(F)F)no4)c3)c2cc1OC [Ex 152, 1-(3-(1,1-difluoroethyl)isoxazol-5-yl)-3-(3-(6,7-dimethoxyquinazolin-4-yloxy)phenyl)urea]	< 250	–	–	C* (0.20 < C ≦ 0.40)
COc1cc2ncnc(Sc3cccc(NC(=O)Nc4cc(C(C)(C)C)on4)c3)c2cc1OCCCN1CCCCC1 [Ex 57, 1-(5-tert-butylisoxazol-3-yl)-3-(3-(7-methoxy-6-(3-(piperidin-1-yl)propoxy)quinazolin-4-ylthio)phenyl)urea]	< 250	–	C (0.20 < C ≦ 0.40)	–
COCCOc1cc(NC(=O)Nc2cccc(Sc3ncnc4cc(OC)c(OC)cc34)c2)cc(C(F)(F)F)c1 [Ex 200, 1-(3-(6,7-dimethoxyquinazolin-4-ylthio)phenyl)-3-(3-(2-methoxyethoxy)-5-(trifluoromethyl)phenyl)urea]	–	> 1000	C (0.20 < C ≦ 0.40)	–
